Results on 2 compounds are retold here after US6355289B1, “Method for preserving tortillas made from corn or wheat” (Kemin Industries, Inc., priority 1996, dated 2002).

For series [1], the system named is bacteria, mold, and yeast. As to the kind of experiment: Carbon dioxide production of tortillas from treated dough. The conditions noted are these: antimicrobial added to propionic/phosphoric acid preparation.
Text: In the laboratory, shelf life of varying formulations of tortillas can be compared by monitoring the output of carbon dioxide produced by the bacteria, mold, and yeast.
Tortillas were then manufactured from the treated dough.
The conditions of series [2]: food pH 5.4; cited from earlier work.

Each structure is given as a SMILES string.

As to `O=C(O)c1ccccc1` [benzoic acid], in series [1], the “effectiveness in controlling fermented odor / preventing spoilage” value is listed as “best qualities for preventing spoilage”. Moreover, the acid undissociated in series [2] is listed as 7.75%.
`CCC(=O)O` [propionic acid]: in series [2], the acid undissociated is listed as 20%.
